Measured values: PubChem BioAssay (NCI)
Where “and” joins values, the source holds several entries; their conditions need not be identical. Equal values may be shown once.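 Briefly, cells in 96-well plates were exposed to five compound concentrations for 48 h, and endpoints were estimated by linear interpolation. GI50 marks 50% less growth. Definition used: TGI = concentration required for complete inhibition of growth.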

Columns and labels:
Experiment in all cases: NCI anticancer screen, dose series, 48 h
NCI/ADR-RES ovarian = system: NCI/ADR-RES ovarian
NCI-H522 lung = system: NCI-H522 lung
SNB-19 CNS = system: SNB-19 CNS
UACC-257 melanoma = system: UACC-257 melanoma
SR leukemia = system: SR leukemia
OVCAR-8 ovarian = system: OVCAR-8 ovarian
NCI-H460 lung = system: NCI-H460 lung
CCRF-CEM leukemia = system: CCRF-CEM leukemia
HL-60(TB) leukemia = system: HL-60(TB) leukemia
UACC-62 melanoma = system: UACC-62 melanoma
MOLT-4 leukemia = system: MOLT-4 leukemia
LOX IMVI melanoma = system: LOX IMVI melanoma
HOP-62 NSCLC = system: HOP-62 NSCLC
MCF7 breast = system: MCF7 breast
EKVX NSCLC = system: EKVX NSCLC
RPMI-8226 leukemia = system: RPMI-8226 leukemia
HS 578T breast = system: HS 578T breast
SK-MEL-28 melanoma = system: SK-MEL-28 melanoma
TK-10 renal = system: TK-10 renal
SF-539 CNS = system: SF-539 CNS
SW-620 colon = system: SW-620 colon
RXF 393 renal = system: RXF 393 renal
PC-3 prostate = system: PC-3 prostate
ACHN renal = system: ACHN renal
MDA-MB-435 = system: MDA-MB-435
SK-MEL-5 melanoma = system: SK-MEL-5 melanoma
SN12C renal = system: SN12C renal
A549 NSCLC = system: A549 NSCLC
IGROV1 ovarian = system: IGROV1 ovarian
BT-549 breast = system: BT-549 breast
DU-145 prostate = system: DU-145 prostate
NCI-H23 lung = system: NCI-H23 lung
NCI-H226 lung = system: NCI-H226 lung
K-562 leukemia = system: K-562 leukemia
COLO 205 colon = system: COLO 205 colon
A498 renal = system: A498 renal
SK-OV-3 ovarian = system: SK-OV-3 ovarian
CAKI-1 renal = system: CAKI-1 renal
OVCAR-3 ovarian = system: OVCAR-3 ovarian
OVCAR-5 ovarian = system: OVCAR-5 ovarian
HOP-92 NSCLC = system: HOP-92 NSCLC
SF-268 CNS = system: SF-268 CNS
HT29 colon = system: HT29 colon
HCC-2998 colon = system: HCC-2998 colon
HCT-116 colon = system: HCT-116 colon
UO-31 renal = system: UO-31 renal
U251 CNS = system: U251 CNS
HCT-15 colon = system: HCT-15 colon
M14 melanoma = system: M14 melanoma
MDA-MB-231 breast = system: MDA-MB-231 breast
786-0 renal = system: 786-0 renal
T-47D breast = system: T-47D breast
SF-295 CNS = system: SF-295 CNS
OVCAR-4 ovarian = system: OVCAR-4 ovarian
SNB-75 CNS = system: SNB-75 CNS
KM12 colon = system: KM12 colon

OCCN1CCN(CCCN2c3ccccc3Sc3ccc(C(F)(F)F)cc32)CC1
GI50 (NCI/ADR-RES ovarian): 3.28 µM and 10.8 µM and 9.73 µM | TGI (NCI/ADR-RES ovarian): 10.4 µM and 23.4 µM and 23.5 µM | TGI (NCI-H522 lung): 3.49 µM and 30.1 µM and 26.8 µM | GI50 (SNB-19 CNS): 2.08 µM and 14 µM and 12.3 µM | TGI (SNB-19 CNS): 8.34 µM and 30.8 µM and 27.3 µM | GI50 (UACC-257 melanoma): 0.863 µM and 2.01 µM and 1.96 µM | TGI (UACC-257 melanoma): 1.74 µM and 4.97 µM and 4.19 µM | GI50 (SR leukemia): 2.05 µM and 3.56 µM and 1.9 µM | TGI (SR leukemia): 6.46 µM and 13.2 µM and 5.51 µM | GI50 (OVCAR-8 ovarian): 4.46 µM and 13.6 µM and 14 µM | TGI (OVCAR-8 ovarian): 11.4 µM and 28.5 µM and 28.8 µM | GI50 (NCI-H460 lung): 1.82 µM and 9.47 µM and 4.83 µM | TGI (NCI-H460 lung): 6.69 µM and 28.4 µM and 23.3 µM | GI50 (CCRF-CEM leukemia): 2.59 µM | TGI (CCRF-CEM leukemia): 9.67 µM | GI50 (HL-60(TB) leukemia): 2.52 µM and 11.5 µM and 2.06 µM | TGI (HL-60(TB) leukemia): 9.06 µM and 29.3 µM and 5.56 µM | GI50 (UACC-62 melanoma): 0.824 µM and 2.48 µM and 2.08 µM | TGI (UACC-62 melanoma): 1.62 µM and 6.83 µM and 4.44 µM | GI50 (MOLT-4 leukemia): 2.35 µM and 9.23 µM and 2.83 µM | TGI (MOLT-4 leukemia): 8.44 µM and 27 µM and 8.49 µM | GI50 (LOX IMVI melanoma): 0.898 µM and 5.18 µM and 3.4 µM | TGI (LOX IMVI melanoma): 2 µM and 18.2 µM and 12.7 µM | GI50 (HOP-62 NSCLC): 3.11 µM and 13.1 µM and 11.6 µM | TGI (HOP-62 NSCLC): 9.82 µM and 27.4 µM and 24.7 µM | GI50 (MCF7 breast): 1.2 µM and 6.8 µM and 7.74 µM | TGI (MCF7 breast): 2.92 µM and 22.6 µM and 25.1 µM | GI50 (EKVX NSCLC): 5.18 µM and 11.6 µM and 10.4 µM | TGI (EKVX NSCLC): 12.7 µM and 29.2 µM and 30.4 µM | GI50 (RPMI-8226 leukemia): 1.54 µM | TGI (RPMI-8226 leukemia): 4.69 µM | GI50 (HS 578T breast): 1.86 µM and 13.5 µM and 8.23 µM | TGI (HS 578T breast): 13.1 µM and 60.6 µM and 41.6 µM | GI50 (SK-MEL-28 melanoma): 0.91 µM and 2.48 µM and 2.2 µM | TGI (SK-MEL-28 melanoma): 1.66 µM and 7.16 µM and 5.98 µM | GI50 (TK-10 renal): 1.48 µM and 8.22 µM and 6.59 µM | TGI (TK-10 renal): 4.28 µM and 21.3 µM and 20.1 µM | GI50 (SF-539 CNS): 4.88 µM and 10.8 µM and 9.77 µM | TGI (SF-539 CNS): 11.3 µM and 26.9 µM and 23.6 µM | GI50 (SW-620 colon): 1.93 µM and 11.7 µM and 4.22 µM | TGI (SW-620 colon): 8.01 µM and 25.4 µM and 16.2 µM | GI50 (RXF 393 renal): 1.35 µM and 5.08 µM and 5.7 µM | TGI (RXF 393 renal): 6.39 µM and 18.9 µM and 19.6 µM | GI50 (PC-3 prostate): 1.97 µM and 8.77 µM and 10.3 µM | TGI (PC-3 prostate): 8.14 µM and 21.6 µM and 23 µM | GI50 (ACHN renal): 3.61 µM and 11.7 µM and 10.2 µM | TGI (ACHN renal): 10.2 µM and 25.6 µM and 22.6 µM | GI50 (MDA-MB-435): 1.14 µM and 3.54 µM and 2.44 µM | TGI (MDA-MB-435): 3 µM and 14 µM and 7.42 µM | GI50 (SK-MEL-5 melanoma): 0.764 µM and 3.02 µM and 1.98 µM | TGI (SK-MEL-5 melanoma): 1.43 µM and 11 µM and 4.8 µM | GI50 (SN12C renal): 4.49 µM and 11.4 µM and 7.83 µM | TGI (SN12C renal): 11.4 µM and 26.7 µM and 21.8 µM | GI50 (A549 NSCLC): 2.79 µM and 10.8 µM and 9.54 µM | TGI (A549 NSCLC): 9.84 µM and 24 µM and 22.9 µM | GI50 (IGROV1 ovarian): 2.57 µM and 11.3 µM and 10.2 µM | TGI (IGROV1 ovarian): 9.32 µM and 28.5 µM and 30.1 µM | GI50 (BT-549 breast): 5.65 µM and 2.92 µM and 3.29 µM | TGI (BT-549 breast): 12.1 µM and 17.7 µM and 9.5 µM | GI50 (DU-145 prostate): 6.29 µM and 12.9 µM | TGI (DU-145 prostate): 12.7 µM and 25.7 µM | GI50 (NCI-H23 lung): 5.2 µM and 11.6 µM and 10.5 µM | TGI (NCI-H23 lung): 12 µM and 24.5 µM and 24.1 µM | GI50 (NCI-H226 lung): 5.3 µM and 12.7 µM and 12.3 µM | TGI (NCI-H226 lung): 11.8 µM and 27.6 µM and 25.7 µM | GI50 (K-562 leukemia): 1.27 µM and 3.18 µM and 2.05 µM | TGI (K-562 leukemia): 2.83 µM and 10.7 µM and 4.73 µM | GI50 (COLO 205 colon): 0.795 µM and 2.17 µM and 1.93 µM | TGI (COLO 205 colon): 1.53 µM and 4.46 µM and 3.59 µM | GI50 (A498 renal): 2.28 µM and 9.65 µM and 10.4 µM | TGI (A498 renal): 10.3 µM and 23.4 µM and 28.1 µM | GI50 (SK-OV-3 ovarian): 5.55 µM and 14.5 µM and 13.3 µM | TGI (SK-OV-3 ovarian): 11.7 µM and 29.1 µM and 27.3 µM | GI50 (CAKI-1 renal): 2.61 µM and 11.3 µM and 6.93 µM | TGI (CAKI-1 renal): 9.5 µM and 25.7 µM and 21.6 µM | GI50 (OVCAR-3 ovarian): 4.34 µM and 12.4 µM | TGI (OVCAR-3 ovarian): 10.6 µM and 25.5 µM | GI50 (OVCAR-5 ovarian): 5.68 µM and 11.2 µM and 11.5 µM | TGI (OVCAR-5 ovarian): 12.2 µM and 25.3 µM and 25.1 µM | GI50 (HOP-92 NSCLC): 0.708 µM | TGI (HOP-92 NSCLC): 3.81 µM | GI50 (SF-268 CNS): 5.2 µM and 11.5 µM | TGI (SF-268 CNS): 11.5 µM and 24.5 µM | GI50 (HT29 colon): 0.897 µM and 4.12 µM and 3.23 µM | TGI (HT29 colon): 1.78 µM and 13.9 µM and 11 µM | GI50 (HCC-2998 colon): 0.824 µM and 2.75 µM and 1.97 µM | TGI (HCC-2998 colon): 1.6 µM and 7.99 µM and 4.21 µM | GI50 (HCT-116 colon): 1.55 µM | TGI (HCT-116 colon): 5.52 µM | GI50 (UO-31 renal): 1.96 µM and 6.09 µM and 4.53 µM | TGI (UO-31 renal): 8.84 µM and 21.2 µM and 20 µM | GI50 (U251 CNS): 1.45 µM and 5.19 µM and 3.66 µM | TGI (U251 CNS): 5.44 µM and 18.4 µM and 14.5 µM | GI50 (HCT-15 colon): 1.97 µM and 4.22 µM and 3.7 µM | TGI (HCT-15 colon): 6.88 µM and 18.3 µM and 15 µM | GI50 (M14 melanoma): 0.899 µM and 2.34 µM | TGI (M14 melanoma): 1.73 µM and 6.13 µM | GI50 (MDA-MB-231 breast): 1.2 µM and 8.87 µM and 5.68 µM | TGI (MDA-MB-231 breast): 5.07 µM and 22.8 µM and 18.1 µM | GI50 (786-0 renal): 3.01 µM and 9.35 µM and 3.81 µM | TGI (786-0 renal): 9.95 µM and 25.9 µM and 20.4 µM | GI50 (T-47D breast): 1.36 µM and 8.88 µM and 7.46 µM | TGI (T-47D breast): 6.12 µM and 25.8 µM and 22.9 µM | GI50 (SF-295 CNS): 1.02 µM and 4.73 µM and 2.41 µM | TGI (SF-295 CNS): 2.7 µM and 19.2 µM and 6.19 µM | GI50 (OVCAR-4 ovarian): 5.29 µM and 10.8 µM and 8.5 µM | TGI (OVCAR-4 ovarian): 11.2 µM and 23.1 µM and 20.9 µM | GI50 (SNB-75 CNS): 2.04 µM and 10 µM and 6.62 µM | TGI (SNB-75 CNS): 9.16 µM and 22.4 µM and 21.8 µM | GI50 (KM12 colon): 2.35 µM and 8.95 µM | TGI (KM12 colon): 8.01 µM and 21.6 µM
